Assay results from the CheMixHub viscosity set.
± gives the uncertainty stated by the source.

Test: xn = mol fraction of the nth substance listed

CCNCC + CCCCCCCCO
viscosity [mPa·s], 100 kPa
Details	x1 = 0.0804	x1 = 0.16	x1 = 0.2402	x1 = 0.3517	x1 = 0.4405	x1 = 0.5609	x1 = 0.65	x1 = 0.7404	x1 = 0.8495	x1 = 0.9402
293.15 K	8.22 ± 0.66	7.36 ± 0.59	6.53 ± 0.52	5.45 ± 0.44	4.61 ± 0.37	3.56 ± 0.29	2.82 ± 0.23	2.13 ± 0.17	1.33 ± 0.11	0.7 ± 0.06
303.15 K	5.75 ± 0.46	5.14 ± 0.41	4.54 ± 0.36	3.76 ± 0.3	3.18 ± 0.26	2.44 ± 0.2	1.94 ± 0.16	1.46 ± 0.12	0.93 ± 0.08	0.53 ± 0.04
313.15 K	4.15 ± 0.33	3.7 ± 0.3	3.26 ± 0.26	2.69 ± 0.22	2.28 ± 0.18	1.75 ± 0.14	1.4 ± 0.11	1.06 ± 0.09	0.69 ± 0.06	0.42 ± 0.03
323.15 K	3.05 ± 0.25	2.71 ± 0.22	2.39 ± 0.19	1.97 ± 0.16	1.67 ± 0.13	1.3 ± 0.1	1.04 ± 0.08	0.8 ± 0.06	0.54 ± 0.04	0.34 ± 0.03

CC(C)(C)O + CCCCCC
303.2 K, 101.33 kPa
Details	viscosity [mPa·s]
x2 = 0.05	2.298 ± 0.015
x2 = 0.1	1.677 ± 0.011
x2 = 0.15	1.306 ± 0.009
x2 = 0.2	1.052 ± 0.007
x2 = 0.3	0.749 ± 0.006
x2 = 0.4	0.568 ± 0.005
x2 = 0.5	0.465 ± 0.004
x2 = 0.6	0.41 ± 0.004
x2 = 0.7	0.361 ± 0.003
x2 = 0.8	0.319 ± 0.003
x2 = 0.85	0.302 ± 0.003
x2 = 0.9	0.289 ± 0.003
x2 = 0.95	0.281 ± 0.003

COCCOCCOCCOC + CCCO
viscosity [mPa·s]
Details	298.15 K	308.15 K
101 kPa, x1 = 0.0386	1.777 ± 0.054	1.406 ± 0.044
101 kPa, x1 = 0.0615	1.714 ± 0.052	1.363 ± 0.043
101 kPa, x1 = 0.076	1.697 ± 0.052	1.34 ± 0.042
101 kPa, x1 = 0.1064	1.636 ± 0.05	1.318 ± 0.041
101 kPa, x1 = 0.1595	1.584 ± 0.049	1.28 ± 0.04
101 kPa, x1 = 0.2157	1.577 ± 0.048	1.288 ± 0.04
101 kPa, x1 = 0.2499	1.572 ± 0.048	1.274 ± 0.04
101 kPa, x1 = 0.2631	1.57 ± 0.048	1.275 ± 0.04
101 kPa, x1 = 0.3355	1.594 ± 0.049	1.288 ± 0.04
101 kPa, x1 = 0.422	1.607 ± 0.049	1.315 ± 0.041
101 kPa, x1 = 0.4701	1.635 ± 0.05	1.335 ± 0.042
101 kPa, x1 = 0.5148	1.654 ± 0.051	1.363 ± 0.043
101 kPa, x1 = 0.5848	1.693 ± 0.052	1.385 ± 0.043
101 kPa, x1 = 0.6662	1.743 ± 0.053	1.442 ± 0.045
101 kPa, x1 = 0.7126	1.772 ± 0.054	1.456 ± 0.045
101 kPa, x1 = 0.7778	1.826 ± 0.056	1.483 ± 0.046
101 kPa, x1 = 0.8098	1.853 ± 0.057	1.508 ± 0.047
101 kPa, x1 = 0.8789	1.89 ± 0.058	1.536 ± 0.048
101 kPa, x1 = 0.9504	1.942 ± 0.059	1.58 ± 0.049
101 kPa, x1 = 0.9719	1.956 ± 0.06	1.592 ± 0.049
101.33 kPa, x1 = 0.0081	1.918 ± 0.015	–
101.33 kPa, x1 = 0.0165	1.884 ± 0.015	–
101.33 kPa, x1 = 0.0245	1.856 ± 0.015	–
101.33 kPa, x1 = 0.0336	1.824 ± 0.014	–
101.33 kPa, x1 = 0.048	1.781 ± 0.014	–
101.33 kPa, x1 = 0.0692	1.725 ± 0.014	–
101.33 kPa, x1 = 0.0946	1.67 ± 0.013	–
101.33 kPa, x1 = 0.1327	1.614 ± 0.013	–
101.33 kPa, x1 = 0.1747	1.573 ± 0.013	–
101.33 kPa, x1 = 0.2259	1.549 ± 0.012	–
101.33 kPa, x1 = 0.2757	1.544 ± 0.012	–
101.33 kPa, x1 = 0.3226	1.548 ± 0.012	–
101.33 kPa, x1 = 0.3691	1.563 ± 0.013	–
101.33 kPa, x1 = 0.4157	1.578 ± 0.013	–
101.33 kPa, x1 = 0.4606	1.598 ± 0.013	–
101.33 kPa, x1 = 0.5153	1.625 ± 0.013	–
101.33 kPa, x1 = 0.5714	1.653 ± 0.013	–
101.33 kPa, x1 = 0.6283	1.684 ± 0.013	–
101.33 kPa, x1 = 0.6732	1.713 ± 0.014	–
101.33 kPa, x1 = 0.7227	1.743 ± 0.014	–
101.33 kPa, x1 = 0.7726	1.778 ± 0.014	–
101.33 kPa, x1 = 0.8162	1.812 ± 0.014	–
101.33 kPa, x1 = 0.8625	1.848 ± 0.015	–
101.33 kPa, x1 = 0.9112	1.888 ± 0.015	–
101.33 kPa, x1 = 0.9347	1.904 ± 0.015	–
101.33 kPa, x1 = 0.9568	1.919 ± 0.015	–
101.33 kPa, x1 = 0.9775	1.935 ± 0.015	–

Nc1ccccc1 + CCC(C)O
303 K, 101.33 kPa
Details	viscosity [mPa·s]
x1 = 0.1	2.052 ± 0.21
x1 = 0.2	1.978 ± 0.2
x1 = 0.3	1.954 ± 0.2
x1 = 0.4	1.944 ± 0.2
x1 = 0.5	2.076 ± 0.21
x1 = 0.6	2.156 ± 0.22
x1 = 0.8	2.504 ± 0.26
x1 = 0.9	2.835 ± 0.29

Nc1ccccc1 + CCCCCCCCCO
viscosity [mPa·s], 100 kPa
Details	x1 = 0.0851	x1 = 0.1597	x1 = 0.2339	x1 = 0.3537	x1 = 0.4468	x1 = 0.5616	x1 = 0.6482	x1 = 0.7383	x1 = 0.8486	x1 = 0.9448
293.15 K	9.99 ± 0.8	8.96 ± 0.72	8.14 ± 0.65	6.97 ± 0.56	6.19 ± 0.5	5.33 ± 0.43	4.9 ± 0.39	4.53 ± 0.36	4.24 ± 0.34	4.2 ± 0.34
303.15 K	6.9 ± 0.55	6.21 ± 0.5	5.58 ± 0.45	4.87 ± 0.39	4.36 ± 0.35	3.79 ± 0.3	3.46 ± 0.28	3.24 ± 0.26	3.06 ± 0.25	3.04 ± 0.24
313.15 K	4.94 ± 0.4	4.47 ± 0.36	4.08 ± 0.33	3.58 ± 0.29	3.25 ± 0.26	2.85 ± 0.23	2.64 ± 0.21	2.48 ± 0.2	2.38 ± 0.19	2.38 ± 0.19
323.15 K	3.67 ± 0.29	3.35 ± 0.27	3.06 ± 0.25	2.71 ± 0.22	2.47 ± 0.2	2.19 ± 0.18	2.05 ± 0.16	1.94 ± 0.16	1.87 ± 0.15	1.88 ± 0.15

COCCOCCOCCO + O
101.33 kPa
Details	viscosity [mPa·s]
298.15 K, x1 = 0.0497	2.531 ± 0.3
298.15 K, x1 = 0.0989	4.964 ± 0.32
298.15 K, x1 = 0.1415	6.443 ± 0.32
298.15 K, x1 = 0.2035	7.869 ± 0.33
298.15 K, x1 = 0.3069	8.456 ± 0.34
298.15 K, x1 = 0.4204	7.901 ± 0.33
298.15 K, x1 = 0.5037	7.472 ± 0.33
298.15 K, x1 = 0.6109	6.897 ± 0.33
298.15 K, x1 = 0.7651	6.754 ± 0.33
298.15 K, x1 = 0.84	6.754 ± 0.33
298.15 K, x1 = 0.8917	6.594 ± 0.33
308.15 K, x1 = 0.0226	1.317 ± 0.012
308.15 K, x1 = 0.0554	2.514 ± 0.021
308.15 K, x1 = 0.0964	3.669 ± 0.033
308.15 K, x1 = 0.1278	4.537 ± 0.044
308.15 K, x1 = 0.1726	5.437 ± 0.057
308.15 K, x1 = 0.2157	5.977 ± 0.067
308.15 K, x1 = 0.2434	6.176 ± 0.072
308.15 K, x1 = 0.302	6.38 ± 0.081
308.15 K, x1 = 0.3364	6.428 ± 0.085
308.15 K, x1 = 0.3687	6.422 ± 0.089
308.15 K, x1 = 0.3952	6.376 ± 0.091
308.15 K, x1 = 0.42	6.331 ± 0.093
308.15 K, x1 = 0.4712	6.215 ± 0.097
308.15 K, x1 = 0.5057	6.123 ± 0.1
308.15 K, x1 = 0.5471	6.022 ± 0.1
308.15 K, x1 = 0.6208	5.83 ± 0.11
308.15 K, x1 = 0.6681	5.716 ± 0.11
308.15 K, x1 = 0.6996	5.651 ± 0.11
308.15 K, x1 = 0.775	5.463 ± 0.12
308.15 K, x1 = 0.8279	5.355 ± 0.12
308.15 K, x1 = 0.8744	5.266 ± 0.12
308.15 K, x1 = 0.9499	5.134 ± 0.13
313.15 K, x1 = 0.0497	1.632 ± 0.3
313.15 K, x1 = 0.0989	2.994 ± 0.31
313.15 K, x1 = 0.1415	3.785 ± 0.31
313.15 K, x1 = 0.2035	4.556 ± 0.32
313.15 K, x1 = 0.3069	4.963 ± 0.32
313.15 K, x1 = 0.4204	4.933 ± 0.32
313.15 K, x1 = 0.5037	4.812 ± 0.32
313.15 K, x1 = 0.6109	4.728 ± 0.32
313.15 K, x1 = 0.7651	4.394 ± 0.32
313.15 K, x1 = 0.84	4.295 ± 0.32
313.15 K, x1 = 0.8917	4.236 ± 0.32
323.15 K, x1 = 0.0497	1.3 ± 0.3
323.15 K, x1 = 0.0989	2.266 ± 0.3
323.15 K, x1 = 0.1415	2.812 ± 0.31
323.15 K, x1 = 0.2035	3.375 ± 0.31
323.15 K, x1 = 0.3069	3.689 ± 0.31
323.15 K, x1 = 0.4204	3.709 ± 0.31
323.15 K, x1 = 0.5037	3.647 ± 0.31
323.15 K, x1 = 0.6109	3.566 ± 0.31
323.15 K, x1 = 0.7651	3.428 ± 0.31
323.15 K, x1 = 0.84	3.352 ± 0.31
323.15 K, x1 = 0.8917	3.307 ± 0.31
